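All cell lines were grown in 96-well plates and treated with compound for 48 hours. GI50 is the concentration that inhibits growth by half.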 The source made the active and inactive calls. Cut-off read from the data, not from the text of the source: active = GI50 up to about 1.1 µM and inactive = higher.
Columns and labels:
Assay in all cases: DTP human tumour cell line panel, 48 h
T47D = test system: T47D
A498 = test system: A498
BT-549 = test system: BT-549
MDA-MB-435 = test system: MDA-MB-435
OVCAR-8 = test system: OVCAR-8
SNB-75 = test system: SNB-75
K562 = test system: K562
HL-60 = test system: HL-60
UACC-257 = test system: UACC-257
MDA-MB-231 = test system: MDA-MB-231
HOP-92 = test system: HOP-92
NCI-H23 = test system: NCI-H23
SF-268 = test system: SF-268
ACHN = test system: ACHN
TK-10 = test system: TK-10
SNB-19 = test system: SNB-19
RXF 393 = test system: RXF 393
SF-539 = test system: SF-539
NCI-H226 = test system: NCI-H226

SMILES: O/N=N/c1ccc(-c2ccccc2)cn1
- GI50 (T47D): 8.18 µM (inactive)
- GI50 (A498): 13 µM (inactive)
- GI50 (BT-549): 30.7 µM (inactive)
- GI50 (MDA-MB-435): 14.7 µM (inactive)
- GI50 (OVCAR-8): 15 µM (inactive)
- GI50 (SNB-75): 6.46 µM (inactive)
- GI50 (K562): 19.6 µM (inactive)
- GI50 (HL-60): 0.176 µM (active)
- GI50 (UACC-257): 43.9 µM (inactive)
- GI50 (MDA-MB-231): 28.6 µM (inactive)
- GI50 (HOP-92): 1.32 µM (inactive)
- GI50 (NCI-H23): 4 µM (inactive)
- GI50 (SF-268): 4.59 µM (inactive)
- GI50 (ACHN): 2.86 µM (inactive)
- GI50 (TK-10): 22.3 µM (inactive)
- GI50 (SNB-19): 18.1 µM (inactive)
- GI50 (RXF 393): 1.38 µM (inactive)
- GI50 (SF-539): 17.4 µM (inactive)
- GI50 (NCI-H226): 17.9 µM (inactive)

SMILES: CCN(CC)CC1CCCCN1CC(=O)N1c2ccccc2NC(=O)CC1C (centres undefined)
- GI50 (T47D): > 100 µM (inactive)
- GI50 (A498): > 100 µM (inactive)
- GI50 (BT-549): > 100 µM (inactive)
- GI50 (MDA-MB-435): > 100 µM (inactive)
- GI50 (OVCAR-8): > 100 µM (inactive)
- GI50 (K562): > 100 µM (inactive)
- GI50 (HL-60): > 100 µM (inactive)
- GI50 (UACC-257): > 100 µM (inactive)
- GI50 (MDA-MB-231): > 100 µM (inactive)
- GI50 (HOP-92): > 100 µM (inactive)
- GI50 (NCI-H23): > 100 µM (inactive)
- GI50 (SF-268): > 100 µM (inactive)
- GI50 (ACHN): > 100 µM (inactive)
- GI50 (TK-10): > 100 µM (inactive)
- GI50 (SNB-19): > 100 µM (inactive)
- GI50 (RXF 393): > 100 µM (inactive)
- GI50 (SF-539): > 100 µM (inactive)
- GI50 (NCI-H226): > 100 µM (inactive)

SMILES: CC1C2(C)OC(=N)C(C#N)(C(c3ccco3)O2)C1(C#N)C#N (centres undefined)
- GI50 (T47D): 17.8 µM (inactive)
- GI50 (A498): > 100 µM (inactive)
- GI50 (BT-549): 35.2 µM (inactive)
- GI50 (OVCAR-8): 39.9 µM (inactive)
- GI50 (SNB-75): 97.3 µM (inactive)
- GI50 (K562): 34.9 µM (inactive)
- GI50 (HL-60): 18.8 µM (inactive)
- GI50 (UACC-257): 20.5 µM (inactive)
- GI50 (MDA-MB-231): 19.1 µM (inactive)
- GI50 (HOP-92): 22.3 µM (inactive)
- GI50 (NCI-H23): 29.9 µM (inactive)
- GI50 (SF-268): 29 µM (inactive)
- GI50 (ACHN): 36.6 µM (inactive)
- GI50 (TK-10): 37.9 µM (inactive)
- GI50 (SNB-19): 42.5 µM (inactive)
- GI50 (RXF 393): 22.6 µM (inactive)
- GI50 (SF-539): 19.5 µM (inactive)
- GI50 (NCI-H226): > 100 µM (inactive)

SMILES: CC1CC(=O)Nc2ccc(/N=N/N(C)C)cc2N1C=O (centres undefined)
- GI50 (T47D): > 100 µM (inactive)
- GI50 (BT-549): > 100 µM (inactive)
- GI50 (MDA-MB-435): > 100 µM (inactive)
- GI50 (OVCAR-8): > 100 µM (inactive)
- GI50 (SNB-75): > 100 µM (inactive)
- GI50 (K562): > 100 µM (inactive)
- GI50 (UACC-257): > 100 µM (inactive)
- GI50 (MDA-MB-231): > 100 µM (inactive)
- GI50 (NCI-H23): > 100 µM (inactive)
- GI50 (SF-268): > 100 µM (inactive)
- GI50 (ACHN): > 100 µM (inactive)
- GI50 (TK-10): > 100 µM (inactive)
- GI50 (SNB-19): > 100 µM (inactive)
- GI50 (RXF 393): > 100 µM (inactive)
- GI50 (NCI-H226): > 100 µM (inactive)

SMILES: S=c1scc(-c2ccc(Cl)cc2)n1OC1CCCC1
- GI50 (T47D): 12.9 µM (inactive)
- GI50 (A498): 26.1 µM (inactive)
- GI50 (BT-549): 30.2 µM (inactive)
- GI50 (MDA-MB-435): 15.7 µM (inactive)
- GI50 (OVCAR-8): 33.8 µM (inactive)
- GI50 (SNB-75): 36.5 µM (inactive)
- GI50 (K562): 16.1 µM (inactive)
- GI50 (HL-60): 22 µM (inactive)
- GI50 (UACC-257): 27 µM (inactive)
- GI50 (MDA-MB-231): 39.5 µM (inactive)
- GI50 (HOP-92): 21.3 µM (inactive)
- GI50 (NCI-H23): 16.9 µM (inactive)
- GI50 (SF-268): 72.9 µM (inactive)
- GI50 (ACHN): 25.5 µM (inactive)
- GI50 (TK-10): 72.8 µM (inactive)
- GI50 (SNB-19): 69 µM (inactive)
- GI50 (RXF 393): 17.1 µM (inactive)
- GI50 (SF-539): 10.8 µM (inactive)

SMILES: Cc1ccc(-n2nncc2[Si](C)(C)C)s1
- GI50 (T47D): > 100 µM (inactive)
- GI50 (A498): > 100 µM (inactive)
- GI50 (BT-549): > 100 µM (inactive)
- GI50 (MDA-MB-435): > 100 µM (inactive)
- GI50 (OVCAR-8): > 100 µM (inactive)
- GI50 (K562): > 100 µM (inactive)
- GI50 (UACC-257): > 100 µM (inactive)
- GI50 (MDA-MB-231): > 100 µM (inactive)
- GI50 (HOP-92): > 100 µM (inactive)
- GI50 (NCI-H23): > 100 µM (inactive)
- GI50 (SF-268): > 100 µM (inactive)
- GI50 (ACHN): > 100 µM (inactive)
- GI50 (TK-10): > 100 µM (inactive)
- GI50 (SNB-19): > 100 µM (inactive)
- GI50 (SF-539): > 100 µM (inactive)
- GI50 (NCI-H226): > 100 µM (inactive)

Reference: ChEMBL document CHEMBL1201862, “PubChem BioAssay data set” (2004)
